Results from patent US20230365592A1 (Agios Pharmaceuticals, Inc., priority 2022, published 2023).
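Also: after compound treatment, cells received sepiapterin plus isotope-labelled Phenylalanine for 4 hours, then labelled Tyrosine in the medium was quantified, 10-point 2-fold dilution series run in duplicate.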

Each compound was assayed against T1, human PAH with the R408W mutation (Homo sapiens, UniProt P00439, R408W) (assay: Cell Based Phenylalanine Flux Assay). Details: A375 cells expressing human PAH R408W; 24 hrs compound incubation; 13C-Tyrosine by LC-MS; average where tested multiple times; read-out: AC50.
T1 construct: expressed in transfected cells
T1 sequence (P00439 1-452 R408W): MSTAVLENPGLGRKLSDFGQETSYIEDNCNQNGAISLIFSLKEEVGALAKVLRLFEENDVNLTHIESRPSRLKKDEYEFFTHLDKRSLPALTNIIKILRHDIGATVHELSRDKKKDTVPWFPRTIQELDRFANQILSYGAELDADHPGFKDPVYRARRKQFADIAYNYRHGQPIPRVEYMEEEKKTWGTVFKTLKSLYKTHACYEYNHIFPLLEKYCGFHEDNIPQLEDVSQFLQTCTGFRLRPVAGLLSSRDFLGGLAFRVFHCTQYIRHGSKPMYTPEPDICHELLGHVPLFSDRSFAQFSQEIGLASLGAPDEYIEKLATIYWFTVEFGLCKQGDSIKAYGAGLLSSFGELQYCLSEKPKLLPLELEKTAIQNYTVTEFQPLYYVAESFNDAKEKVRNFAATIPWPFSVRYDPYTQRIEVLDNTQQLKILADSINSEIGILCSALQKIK
O=C(c1nnc(-c2cnn(C(F)(F)F)c2)o1)N1CCc2[nH]cnc2[C@H]1c1cc2c(OC(F)F)cccn2n1 [Example 2458, (S)-(4-(4-(difluoromethoxy)pyrazolo[1,5-a]pyridin-2-yl)-6,7-dihydro-1H-imidazo[4,5-c]pyridin-5(4H)-yl)(5-(1-(trifluoromethyl)-1H-pyrazol-4-yl)-1,3,4-oxadiazol-2-yl)methanone] was tested, and the AC50 was 1 to 5 µM.
In the case of FC(F)c1nnc(N2CCc3[nH]cnc3[C@H]2c2cc3ccccn3n2)o1 [Example 2461, (S)-2-(difluoromethyl)-5-(4-(pyrazolo[1,5-a]pyridin-2-yl)-6,7-dihydro-1H-imidazo[4,5-c]pyridin-5(4H)-yl)-1,3,4-oxadiazole], the AC50 is reported as 1 to 5 µM.
With O=C(c1cnn2cc(C3CC3)ccc12)N1CCc2[nH]cnc2[C@H]1c1cc2cccc(C(F)F)n2n1 [Example 2462, (S)-(6-cyclopropylpyrazolo[1,5-a]pyridin-3-yl)(4-(7-(difluoromethyl)pyrazolo[1,5-a]pyridin-2-yl)-6,7-dihydro-1H-imidazo[4,5-c]pyridin-5(4H)-yl)methanone] the AC50 was 1 to 5 µM.
With COc1ccc2c(C(=O)N3CCc4[nH]cnc4[C@H]3c3cc4cccc(Cl)n4n3)cnn2c1 [Example 2464, (S)-(4-(7-chloropyrazolo[1,5-a]pyridin-2-yl)-6,7-dihydro-1H-imidazo[4,5-c]pyridin-5(4H)-yl)(6-methoxypyrazolo[1,5-a]pyridin-3-yl)methanone] the AC50 was 1 to 5 µM.
Work on COc1ccc2c(C(=O)N3CCc4[nH]cnc4[C@@H]3c3cc4cccc(Cl)n4n3)cnn2c1 [Example 2465, (R)-(4-(7-chloropyrazolo[1,5-a]pyridin-2-yl)-6,7-dihydro-1H-imidazo[4,5-c]pyridin-5(4H)-yl)(6-methoxypyrazolo[1,5-a]pyridin-3-yl)methanone] yielded an AC50 greater than 5 µM.
Cc1nnc(N2CCc3[nH]cnc3[C@H]2c2cc3c(C(F)F)cccn3n2)o1 [Example 2467, (S)-2-(4-(4-(difluoromethyl)pyrazolo[1,5-a]pyridin-2-yl)-6,7-dihydro-1H-imidazo[4,5-c]pyridin-5(4H)-yl)-5-methyl-1,3,4-oxadiazole] was tested, and the AC50 was 1 to 5 µM.
O=C(c1nnc(-c2ncccn2)o1)N1CCc2[nH]cnc2[C@H]1c1cc2c(OC(F)(F)F)cccn2n1 [Example 2469, (S)-(5-(pyrimidin-2-yl)-1,3,4-oxadiazol-2-yl)(4-(4-(trifluoromethoxy)pyrazolo[1,5-a]pyridin-2-yl)-6,7-dihydro-1H-imidazo[4,5-c]pyridin-5(4H)-yl)methanone] showed an AC50 of 1 to 5 µM.
COc1cccn2nc([C@@H]3c4nc[nH]c4CCN3C(=O)c3cnn4cc(C)ccc34)cc12 [Example 2470, (S)-(4-(4-methoxypyrazolo[1,5-a]pyridin-2-yl)-6,7-dihydro-1H-imidazo[4,5-c]pyridin-5(4H)-yl)(6-methylpyrazolo[1,5-a]pyridin-3-yl)methanone] showed an AC50 of 1 to 5 µM.
Compound COc1cccn2nc([C@H]3c4nc[nH]c4CCN3C(=O)c3cnn4cc(C)ccc34)cc12 [Example 2471, (R)-(4-(4-methoxypyrazolo[1,5-a]pyridin-2-yl)-6,7-dihydro-1H-imidazo[4,5-c]pyridin-5(4H)-yl)(6-methylpyrazolo[1,5-a]pyridin-3-yl)methanone] has an AC50 greater than 5 µM.
In the case of CN(C)c1ccc2c(C(=O)N3CCc4[nH]cnc4[C@H]3c3cc4cccc(C(F)(F)F)n4n3)cnn2c1 [Example 2472, (S)-(6-(dimethylamino)pyrazolo[1,5-a]pyridin-3-yl)(4-(7-(trifluoromethyl)pyrazolo[1,5-a]pyridin-2-yl)-6,7-dihydro-1H-imidazo[4,5-c]pyridin-5(4H)-yl)methanone], the AC50 is reported as 1 to 5 µM.
CN(C)c1ccc2c(C(=O)N3CCc4[nH]cnc4[C@H]3c3cc4cccc(Cl)n4n3)cnn2c1 [Example 2474, (S)-(4-(7-chloropyrazolo[1,5-a]pyridin-2-yl)-6,7-dihydro-1H-imidazo[4,5-c]pyridin-5(4H)-yl)(6-(dimethylamino)pyrazolo[1,5-a]pyridin-3-yl)methanone] showed an AC50 of 1 to 5 µM.
CN(C)CCc1ccc2c(C(=O)N3CCc4[nH]cnc4[C@H]3c3cc4c(C(F)(F)F)cccn4n3)cnn2c1 [Example 2476, (S)-(6-(2-(dimethylamino)ethyl)pyrazolo[1,5-a]pyridin-3-yl)(4-(4-(trifluoromethyl)pyrazolo[1,5-a]pyridin-2-yl)-6,7-dihydro-1H-imidazo[4,5-c]pyridin-5(4H)-yl)methanone] showed an AC50 of 1 to 5 µM.
Compound COCCc1ccc2c(C(=O)N3CCc4[nH]cnc4[C@H]3c3cc4c(C)cccn4n3)cnn2c1 [Example 2478, (S)-(6-(2-methoxyethyl)pyrazolo[1,5-a]pyridin-3-yl)(4-(4-methylpyrazolo[1,5-a]pyridin-2-yl)-6,7-dihydro-1H-imidazo[4,5-c]pyridin-5(4H)-yl)methanone] has an AC50 of 1 to 5 µM.
Compound Cc1cccn2nc([C@H]3c4nc[nH]c4CCN3c3nnc(C4CCC4)o3)cc12 [Example 2480, (R)-2-cyclobutyl-5-(4-(4-methylpyrazolo[1,5-a]pyridin-2-yl)-6,7-dihydro-1H-imidazo[4,5-c]pyridin-5(4H)-yl)-1,3,4-oxadiazole] has an AC50 greater than 5 µM.
Cc1cccn2nc([C@@H]3c4nc[nH]c4CCN3c3nnc(C4CCC4)o3)cc12 [Example 2481, (S)-2-cyclobutyl-5-(4-(4-methylpyrazolo[1,5-a]pyridin-2-yl)-6,7-dihydro-1H-imidazo[4,5-c]pyridin-5(4H)-yl)-1,3,4-oxadiazole] showed an AC50 of 1 to 5 µM.
In the case of FC(F)(F)c1cccn2nc([C@@H]3c4nc[nH]c4CCN3c3nnc(C4CCC4)o3)cc12 [Example 2482, (S)-2-cyclobutyl-5-(4-(4-(trifluoromethyl)pyrazolo[1,5-a]pyridin-2-yl)-6,7-dihydro-1H-imidazo[4,5-c]pyridin-5(4H)-yl)-1,3,4-oxadiazole], the AC50 is reported as 1 to 5 µM.
Compound FC(F)c1cccn2nc([C@@H]3c4nc[nH]c4CCN3c3nnc(C4CCC4)o3)cc12 [Example 2485, (S)-2-cyclobutyl-5-(4-(4-(difluoromethyl)pyrazolo[1,5-a]pyridin-2-yl)-6,7-dihydro-1H-imidazo[4,5-c]pyridin-5(4H)-yl)-1,3,4-oxadiazole] has an AC50 of 1 to 5 µM.
FC(F)c1cccc2cc([C@@H]3c4nc[nH]c4CCN3c3nnc(C(F)(F)F)o3)nn12 [Example 2487, (S)-2-(4-(7-(difluoromethyl)pyrazolo[1,5-a]pyridin-2-yl)-6,7-dihydro-1H-imidazo[4,5-c]pyridin-5(4H)-yl)-5-(trifluoromethyl)-1,3,4-oxadiazole] gave an AC50 of 1 to 5 µM.
With Cn1cc(-c2nnc(C(=O)N3CCc4[nH]cnc4[C@H]3c3cc4ccc(Br)cn4n3)o2)cn1 [Example 2488, (S)-(4-(6-bromopyrazolo[1,5-a]pyridin-2-yl)-1,4,6,7-tetrahydro-5H-imidazo[4,5-c]pyridin-5-yl)(5-(1-methyl-1H-pyrazol-4-yl)-1,3,4-oxadiazol-2-yl)methanone] the AC50 was 1 to 5 µM.
Work on FC(F)(F)c1nnc(N2CCc3[nH]cnc3[C@H]2c2cc3cccc(C(F)(F)F)n3n2)o1 [Example 2491, (S)-2-(trifluoromethyl)-5-(4-(7-(trifluoromethyl)pyrazolo[1,5-a]pyridin-2-yl)-1,4,6,7-tetrahydro-5H-imidazo[4,5-c]pyridin-5-yl)-1,3,4-oxadiazole] yielded an AC50 of 1 to 5 µM.
With FC(F)(F)c1nnc(N2CCc3[nH]cnc3[C@H]2c2cc3cccc(Cl)n3n2)o1 [Example 2493, (S)-2-(4-(7-chloropyrazolo[1,5-a]pyridin-2-yl)-1,4,6,7-tetrahydro-5H-imidazo[4,5-c]pyridin-5-yl)-5-(trifluoromethyl)-1,3,4-oxadiazole] the AC50 was 1 to 5 µM.
O=C(c1cnc(C2CC2)o1)N1CCc2[nH]cnc2[C@H]1c1cc2ccccn2n1 [Example 2496, (S)-(2-cyclopropyloxazol-5-yl)(4-(pyrazolo[1,5-a]pyridin-2-yl)-1,4,6,7-tetrahydro-5H-imidazo[4,5-c]pyridin-5-yl)methanone] gave an AC50 of 1 to 5 µM.
Cc1cccn2nc([C@@H]3c4nc[nH]c4CCN3C(=O)c3cnc(-c4ccn(C)n4)o3)cc12 [Example 2499, (S)-(2-(1-methyl-1H-pyrazol-3-yl)oxazol-5-yl)(4-(4-methylpyrazolo[1,5-a]pyridin-2-yl)-1,4,6,7-tetrahydro-5H-imidazo[4,5-c]pyridin-5-yl)methanone] showed an AC50 of 1 to 5 µM.
In the case of Cc1nnc(C(=O)N2CCc3[nH]cnc3[C@H]2c2cc3c(C)cccn3n2)s1 [Example 2501, (S)-(5-methyl-1,3,4-thiadiazol-2-yl)(4-(4-methylpyrazolo[1,5-a]pyridin-2-yl)-1,4,6,7-tetrahydro-5H-imidazo[4,5-c]pyridin-5-yl)methanone], the AC50 is reported as 1 to 5 µM.
Cc1cccn2nc([C@@H]3c4nc[nH]c4CCN3C(=O)c3nc4ccccc4s3)cc12 [Example 2502, (S)-benzo[d]thiazol-2-yl(4-(4-methylpyrazolo[1,5-a]pyridin-2-yl)-1,4,6,7-tetrahydro-5H-imidazo[4,5-c]pyridin-5-yl)methanone] was tested, and the AC50 was 1 to 5 µM.
For Cc1cccn2nc([C@H]3c4nc[nH]c4CCN3C(=O)c3nc4ccccc4s3)cc12 [Example 2503, (R)-benzo[d]thiazol-2-yl(4-(4-methylpyrazolo[1,5-a]pyridin-2-yl)-1,4,6,7-tetrahydro-5H-imidazo[4,5-c]pyridin-5-yl)methanone], the AC50 was greater than 5 µM.
Work on Cn1ccc(-c2ncc(C(=O)N3CCc4[nH]cnc4[C@@H]3c3cc4c(F)cccn4n3)o2)n1 [Example 2504, (R)-(4-(4-fluoropyrazolo[1,5-a]pyridin-2-yl)-1,4,6,7-tetrahydro-5H-imidazo[4,5-c]pyridin-5-yl)(2-(1-methyl-1H-pyrazol-3-yl)oxazol-5-yl)methanone] yielded an AC50 greater than 5 µM.
